Reference: article PMC8279416, “Structural Fine-Tuning of Desmuramylpeptide NOD2 Agonists Defines Their In Vivo Adjuvant Activity” (Journal of Medicinal Chemistry, 2021)
Where “and” joins values, the source holds several entries; their conditions need not be identical. Identical values can stand only once.

Molecular target: T1, NOD2 (Homo sapiens, UniProt Q9HC29)
T1 construct: host or cells: HEK-Blue NOD2 cells (HEK293-derived)
Assay: HEK-Blue NOD2 cell line reporter assay (NF-κB-inducible SEAP)
Format: cell-based
Conditions: for NOD2 activity at 2 μM (fold increase): NF-κB transcriptional (SEAP) activity relative to 0.1% DMSO; for Decrease of NOD2 agonistic activity/potency by a factor, relative to 1: ratio of EC50 versus compound 1; for NOD2 activation (in words): compound alone
Method: To determine the NOD2 agonistic potential of the synthesized desmuramylpeptides at the cellular level, we used the validated and commercially available HEK-Blue NOD2 cell line reporter assay. HEK-Blue NOD2 cells were first treated for 18 h with MDP, 1, or the novel desmuramylpeptides at 2 μM. The NF-κB transcriptional activity measured was normalized to that of the vehicle treated (0.1% DMSO) control HEK-Blue NOD2 cells.
HEK-Blue NOD2 and NOD1 cell line reporter assays are derived from HEK293 cells by cotransfection of the hNOD2 or hNOD1 genes, respectively, and an NF-κB-inducible secreted embryonic alkaline phosphatase (SEAP) reporter gene. Following activation of NOD2 or NOD1, the resulting NF-κB induces production of SEAP, the levels of which can be quantified colorimetrically. […] After 18 h of incubation (37 °C, 5% CO2), secreted embryonic alkaline phosphatase (SEAP) activity was determined spectrophotometrically as absorbance at 630 nm (BioTek Synergy microplate reader; Winooski, VT, U.S.A.). EC50 values were calculated using Prism software (version 9; GraphPad Software, CA, U.S.A.). For determination of specificity, HEK-Blue NOD2 cells (2.5 × 10^5 cells/mL) were first pretreated for 1 h with a 10 μM NOD2 antagonist, before the addition of the compounds (2 μM), with incubation for 18 h. SEAP activity in the supernatants was determined as above. The experiments were run in duplicate and repeated as at least two independent biological replicates.

[1] = HEK-Blue NOD2 cells, 18 h, mean ± SEM
[2] = HEK-Blue NOD2 cells, 18 h, 7 or 8 concentrations 1 nM to 20 μM, mean ± SEM

T1 sequence (Q9HC29 whole entry): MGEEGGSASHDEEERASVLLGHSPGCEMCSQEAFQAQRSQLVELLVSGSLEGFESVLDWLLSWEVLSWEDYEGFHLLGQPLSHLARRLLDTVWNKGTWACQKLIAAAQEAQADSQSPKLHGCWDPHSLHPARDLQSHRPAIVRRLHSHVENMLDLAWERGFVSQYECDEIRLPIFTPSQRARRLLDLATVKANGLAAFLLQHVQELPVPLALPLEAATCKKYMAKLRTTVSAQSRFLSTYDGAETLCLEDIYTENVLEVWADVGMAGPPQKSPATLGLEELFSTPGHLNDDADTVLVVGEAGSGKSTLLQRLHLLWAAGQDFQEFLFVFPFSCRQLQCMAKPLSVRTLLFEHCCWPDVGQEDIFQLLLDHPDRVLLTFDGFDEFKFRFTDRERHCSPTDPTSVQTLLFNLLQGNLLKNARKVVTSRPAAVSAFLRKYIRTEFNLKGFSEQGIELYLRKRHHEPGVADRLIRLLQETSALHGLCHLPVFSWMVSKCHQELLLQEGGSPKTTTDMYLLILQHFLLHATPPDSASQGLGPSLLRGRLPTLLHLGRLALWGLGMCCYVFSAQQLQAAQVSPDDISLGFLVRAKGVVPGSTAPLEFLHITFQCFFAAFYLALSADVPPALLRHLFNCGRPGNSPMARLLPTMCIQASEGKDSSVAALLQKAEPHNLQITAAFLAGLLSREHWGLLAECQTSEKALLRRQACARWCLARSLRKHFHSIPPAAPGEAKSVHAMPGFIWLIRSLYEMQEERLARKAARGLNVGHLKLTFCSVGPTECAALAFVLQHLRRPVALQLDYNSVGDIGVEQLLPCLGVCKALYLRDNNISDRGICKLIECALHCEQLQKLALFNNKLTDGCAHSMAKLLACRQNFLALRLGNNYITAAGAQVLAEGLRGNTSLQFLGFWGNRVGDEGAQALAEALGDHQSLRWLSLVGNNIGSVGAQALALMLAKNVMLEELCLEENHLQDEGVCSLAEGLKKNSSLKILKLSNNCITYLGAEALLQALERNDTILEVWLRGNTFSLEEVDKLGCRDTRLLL

Row | Compound | NOD2 activity at 2 μM (fold increase) [1] | EC50 [2] [µM] | further results
1 | CCOC(=O)CC[C@@H](NC(=O)[C@@H](NC(=O)CNC(=O)C1CC1c1ccc(O)c(OC)c1)C(C)C)C(=O)OCC (stereo partly drawn) [Compound 28, Diethyl (2-(4-Hydroxy-3-methoxyphenyl)cyclopropane-1-carbonyl)glycyl-L-valyl-D-glutamate] | 2.66 ± 0.07 fold increase | 0.369 ± 0.004 | Decrease of NOD2 agonistic activity/potency by a factor, relative to 1: 4
2 | CCCCCCCCCCCC(=O)O [lauric acid, reference compound] |  |  | NOD2 activation (in words) (HEK-Blue NOD2 cells): did not show any NOD2 activation alone; Enhancement of the NOD2 agonistic activity of 1 (HEK-Blue NOD2 cells, in combination with 1, data not shown): did not enhance the NOD2 agonistic activity of 1
3 | CCCCCCCCCCCCCCCCCC(=O)NCCCC[C@H](NC(=O)CC[C@@H](NC(=O)[C@@H](NC(=O)CNC(=O)/C=C/c1ccc(O)c(OC)c1)C(C)C)C(=O)OCC)C(=O)OC [Compound 82, Methyl N^2-((R)-5-Ethoxy-4-((S)-2-(2-((E)-3-(4-hydroxy-3-methoxyphenyl)acrylamido)acetamido)-3-methylbutanamido)-5-oxopentanoyl)-N^6-stearoyl-L-lysinate] | 2.00 ± 0.03 fold increase | 11.5 ± 3.91 | EC50 (HEK-Blue NOD2 cells): 11.5 µM
4 | CCOC(=O)CC[C@@H](NC(=O)[C@H](CO)NC(=O)CNC(=O)/C=C/c1ccc(O)c(OC)c1)C(=O)OCC [Compound 31, Diethyl ((E)-3-(4-Hydroxy-3-methoxyphenyl)acryloyl)glycyl-L-seryl-D-glutamate] | 1.21 fold increase and 1.21 ± 0.08 fold increase | > 20 | 
5 | CCCCCCCCCCCCCCCCCC(=O)Oc1ccc(/C=C/C(=O)NCC(=O)N[C@@H](COCc2ccccc2)C(=O)N[C@H](CCC(=O)OCC)C(=O)OCC)cc1OC [Compound 79, Diethyl O-Benzyl-N-(((E)-3-(3-methoxy-4-(stearoyloxy)phenyl)acryloyl)glycyl)-L-seryl-D-glutamate] | 1.68 fold increase and 1.68 ± 0.03 fold increase |  | 
6 | COc1cc(/C=C/C(=O)NCC(=O)N[C@H](C(=O)N[C@H](CCC(=O)N(C)OC)C(=O)OC(C)(C)C)C(C)C)ccc1O [Compound 61, tert-Butyl N^2-((E)-3-(4-Hydroxy-3-methoxyphenyl)acryloyl)glycyl-L-valyl-N^5-methoxy-N^5-methyl-D-glutaminate] | 1.33 ± 0.03 fold increase |  | 
7 | CCCCCCCCCCCCCCCCCC(=O)Oc1ccc(/C=C/C(=O)NCC(=O)N[C@@H](CO)C(=O)N[C@H](CCC(=O)OCC)C(=O)OCC)cc1OC [Compound 80, Diethyl ((E)-3-(3-Methoxy-4-(stearoyloxy)phenyl)acryloyl)glycyl-L-seryl-D-glutamate] | 1.21 fold increase and 1.21 ± 0.06 fold increase |  | 
8 | CCOC(=O)CC[C@@H](NC(=O)[C@@H](NC(=O)CNC(=O)C1CC1c1ccc(OC)c(OC)c1)C(C)C)C(=O)OCC (stereo partly drawn) [Compound 27, Diethyl (2-(3,4-Dimethoxyphenyl)cyclopropane-1-carbonyl)glycyl-L-valyl-D-glutamate] | 2.63 ± 0.15 fold increase | 0.322 ± 0.007 | Improved potency over 20 (ratio of EC50 versus compound 20): 2.4 fold
9 | COc1cc(/C=C/C(=O)NCC(=O)N[C@H](C(=O)N[C@H](CCC(=O)OC(C)(C)C)C(=O)N(C)OC)C(C)C)ccc1O [Compound 63, tert-Butyl (R)-4-((S)-2-(2-((E)-3-(4-Hydroxy-3-methoxyphenyl)acrylamido)acetamido)-3-methylbutanamido)-5-(methoxy(methyl)amino)-5-oxopentanoate] | 1.36 ± 0.05 fold increase |  | 
10 | COc1cc(/C=C/C(=O)NCC(=O)N[C@H](C(=O)N[C@H](CCC(=O)OC(C)(C)C)C(=O)N2CCCC2)C(C)C)ccc1O [Compound 64, tert-Butyl (R)-4-((S)-2-(2-((E)-3-(4-Hydroxy-3-methoxyphenyl)acrylamido)acetamido)-3-methylbutanamido)-5-oxo-5-(pyrrolidin-1-yl)pentanoate] | 1.33 ± 0.03 fold increase |  | 

Now from value to compound, other results behind:

Row | NOD2 activity at 2 μM (fold increase) [1] | EC50 [2] [µM] | Compound | further results
11 | 1.73 ± 0.01 fold increase | 13.9 ± 0.8 | CCOC(=O)CC[C@@H](NC(=O)[C@@H](NC(=O)CNC(=O)CCCc1ccc(O)c(OC)c1)C(C)C)C(=O)OCC [Compound 19, Diethyl (4-(4-Hydroxy-3-methoxyphenyl)butanoyl)glycyl-L-valyl-D-glutamate] | Decrease of NOD2 agonistic activity/potency by a factor, relative to 1: 156
12 | 1.32 ± 0.02 fold increase |  | CCCCCCCCCCCCCCCCCCOC(=O)CC[C@@H](NC(=O)[C@@H](NC(=O)CNC(=O)/C=C/c1ccc(O)c(OC)c1)C(C)C)C(=O)OCCCCCCCCCCCCCCCCCC [Compound 72, Dioctadecyl ((E)-3-(4-Hydroxy-3-methoxyphenyl)acryloyl)glycyl-L-valyl-D-glutamate] | NOD2 activation (in words) (HEK-Blue NOD2 cells): almost completely abrogated the NOD2 agonistic activity
13 | 1.32 ± 0.05 fold increase |  | CCCCNC(=O)CC[C@@H](NC(=O)[C@@H](NC(=O)CNC(=O)/C=C/c1ccc(O)c(OC)c1)C(C)C)C(=O)OC(C)(C)C [Compound 59, tert-Butyl N^5-Butyl-N^2-((E)-3-(4-hydroxy-3-methoxyphenyl)acryloyl)glycyl-L-valyl-D-glutaminate] | 
14 | 1.43 ± 0.01 fold increase |  | COc1cc(/C=C/C(=O)NCC(=O)N[C@H](C(=O)N[C@H](CCC(=O)N2CCCC2)C(=O)OC(C)(C)C)C(C)C)ccc1O [Compound 62, tert-Butyl (R)-2-((S)-2-(2-((E)-3-(4-Hydroxy-3-methoxyphenyl)acrylamido)acetamido)-3-methylbutanamido)-5-oxo-5-(pyrrolidin-1-yl)pentanoate] | 
15 | 1.66 ± 0.11 fold increase | 6.16 ± 1.16 | CCCCCCCCCCCCCCCCCC(=O)Oc1ccc(/C=C/C(=O)NCC(=O)N[C@H](C(=O)N[C@H](CCC(=O)OC2CCCC2)C(=O)OC2CCCC2)C(C)C)cc1OC [Compound 78, Dicyclopentyl ((E)-3-(3-Methoxy-4-(stearoyloxy)phenyl)acryloyl)glycyl-L-valyl-D-glutamate] | EC50 (HEK-Blue NOD2 cells): 6.16 µM
16 | 2.63 ± 0.10 fold increase | 0.049 ± 0.003 | CCOC(=O)CC[C@@H](NC(=O)[C@@H](NC(=O)CNC(=O)C1CC1c1ccc(F)c(F)c1)C(C)C)C(=O)OCC (stereo partly shown) [Compound 29] | 
17 | 2.83 ± 0.06 fold increase | 0.071 ± 0.004 | CCOC(=O)CC[C@@H](NC(=O)[C@@H](NC(=O)CNC(=O)/C=C/c1ccc(C(C)C)cc1)C(C)C)C(=O)OCC [Compound 25, Diethyl ((E)-3-(4-Isopropylphenyl)acryloyl)glycyl-L-valyl-D-glutamate] | 
18 | 2.64 ± 0.01 fold increase | 0.763 ± 0.088 | CCOC(=O)CC[C@@H](NC(=O)[C@@H](NC(=O)CNC(=O)/C=C/c1ccc(OC)c(OC)c1)C(C)C)C(=O)OCC [Compound 20, Diethyl ((E)-3-(3,4-Dimethoxyphenyl)acryloyl)glycyl-L-valyl-D-glutamate] | 
19 | 1.86 ± 0.02 fold increase | 10.2 ± 2.62 | CCOC(=O)[C@@H](CCC(=O)N[C@@H](CCCCN)C(=O)OC)NC(=O)[C@@H](NC(=O)CNC(=O)/C=C/c1ccc(O)c(OC)c1)C(C)C [Compound 41, Methyl ((R)-5-Ethoxy-4-((S)-2-(2-((E)-3-(4-hydroxy-3-methoxyphenyl)acrylamido)acetamido)-3-methylbutanamido)-5-oxopentanoyl)-L-lysinate] | EC50 (HEK-Blue NOD2 cells): 10.2 µM
